In brackets after ≈: the same amount, converted by molar mass. Values belong to the molecule of their own block, whether it stands above or below them.
Assays:
Experiment in all cases: in vitro antibacterial evaluation, MIC by broth dilution
Assay type in all cases: cell-based
Streptococcus sp. = settings: broth dilution, 18 hours at 35° C.
In short: (§1)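 Broth dilution per NCCLS standard M7-A2 in Muller-Hinton II […], with an inoculum of 5×10^5 CFU/mL and antibiotic spanning 64-0.06 μg/mL. The MIC is the lowest concentration that inhibits growth of the organism.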

Staphylococcus sp. = settings: broth dilution, 18 hours at 35° C.; for MIC Staphylococcus aureus (GC 3051): strain GC 3051; for MIC Staphylococcus aureus (GC 3053): strain GC 3053; for MIC Staphylococcus aureus (GC 4545): strain GC 4545; for MIC Staphylococcus haemolyticus (GC 4546): strain GC 4546; for MIC Coagulase Negative Staphylococcus (GC 4547): strain GC 4547; for MIC Coagulase Negative Staphylococcus (GC 4548): strain GC 4548; for MIC Coagulase Negative Staphylococcus (GC 4549): strain GC 4549; for MIC Coagulase Negative Staphylococcus (GC 4551): strain GC 4551; for MIC Coagulase Negative Staphylococcus (GC 6257): strain GC 6257; for MIC Staphylococcus aureus (GC 1131): strain GC 1131
In short: as §1

Enterococcus sp. = settings: broth dilution, 18 hours at 35° C.; for MIC Enterococcus faecalis (ATCC 29212): strain ATCC 29212; for MIC Enterococcus faecium (GC 2243): strain GC 2243; for MIC Enterococcus faecalis (GC 4554): strain GC 4554; for MIC Enterococcus faecium (GC 4556): strain GC 4556; for MIC Enterococcus faecium (GC 4557): strain GC 4557; for MIC Enterococcus avium (GC 4558): strain GC 4558; for MIC Enterococcus faecalis (GC 6189): strain GC 6189; for MIC Enterococcus faecalis (GC 4552): strain GC 4552; for MIC Enterococcus faecalis (GC 4553): strain GC 4553
In short: as §1

Escherichia coli = settings: for MIC Escherichia coli (ATCC 25922): strain ATCC 25922, 18 hours at 35° C.; for MIC Escherichia coli (GC 4559): strain GC 4559, 18 hours at 35° C.
In short: as §1

[1] = Streptococcus agalactiae (GC 4564)
[2] = Streptococcus pneumoniae (ATCC 6301)
[3] = Streptococcus pneumoniae (GC 1894)
[4] = Streptococcus pyogenes (GC 4563)
[5] = Enterococcus faecalis (GC 2242)
[6] = Enterococcus faecalis (GC 2691)
[7] = Enterococcus faecalis (GC 3059)

MIC Streptococcus agalactiae (GC 4564) (Streptococcus sp.; [1]): <0.12 µg/mL
MIC Streptococcus pneumoniae (ATCC 6301) (Streptococcus sp.; [2]): 0.12 µg/mL (≈ 0.087 µM)
MIC Streptococcus pneumoniae (GC 1894) (Streptococcus sp.; [3]): 0.12 µg/mL (≈ 0.087 µM)
MIC Streptococcus pyogenes (GC 4563) (Streptococcus sp.; [4]): >0.12 µg/mL
MIC Streptococcus pyogenes (ID-3187) (Streptococcus sp.; Streptococcus pyogenes (ID-3187)): <0.5 µg/mL
MIC Streptococcus pneumoniae (ATCC 6301) (Streptococcus sp.; strain ATCC 6301): 0.12 µg/mL (≈ 0.087 µM)
MIC Streptococcus pneumoniae (GC 1894) (Streptococcus sp.; strain GC 1894): 0.12 µg/mL (≈ 0.087 µM)
MIC Streptococcus pyogenes (GC 4563) (Streptococcus sp.; strain GC 4563): >0.12 µg/mL
MIC Streptococcus agalactiae (GC 4564) (Streptococcus sp.; strain GC 4564): <0.12 µg/mL
MIC Streptococcus pyogenes (ID-3187) (Streptococcus sp.; strain ID-3187): <0.5 µg/mL
MIC Staphylococcus aureus (GC 3051) (Staphylococcus sp.): 0.5 µg/mL (≈ 0.362 µM)
MIC Staphylococcus aureus (GC 3053) (Staphylococcus sp.): 0.5 µg/mL (≈ 0.362 µM)
MIC Staphylococcus aureus (GC 4545) (Staphylococcus sp.): 0.5 to 1 µg/mL
MIC Coagulase Negative Staphylococcus (GC 4547) (Staphylococcus sp.): <0.5 to 2 µg/mL
MIC Coagulase Negative Staphylococcus (GC 4548) (Staphylococcus sp.): <0.5 to 1 µg/mL
MIC Coagulase Negative Staphylococcus (GC 4549) (Staphylococcus sp.): <0.5 to 1 µg/mL
MIC Coagulase Negative Staphylococcus (GC 4551) (Staphylococcus sp.): <0.5 to 1 µg/mL
MIC Coagulase Negative Staphylococcus (GC 6257) (Staphylococcus sp.): 1 µg/mL (≈ 0.725 µM)
MIC Coagulase Negative Staphylococcus (ID-3941) (Staphylococcus sp.; strain ID-3941): <0.5 µg/mL
MIC Enterococcus faecalis (GC 2242) (Enterococcus sp.; [5]): 0.5 to 1 µg/mL
MIC Enterococcus faecalis (GC 2691) (Enterococcus sp.; [6]): 0.5 µg/mL (≈ 0.362 µM)
MIC Enterococcus faecalis (GC 3059) (Enterococcus sp.; [7]): 0.5 µg/mL (≈ 0.362 µM)
MIC Enterococcus faecalis (ATCC 29212) (Enterococcus sp.; inoculum 5×10^5 CFU/mL): 0.5 to 1 µg/mL
MIC Enterococcus faecium (GC 2243) (Enterococcus sp.; inoculum 5×10^5 CFU/mL): <0.5 to 1 µg/mL
MIC Enterococcus faecalis (GC 4554) (Enterococcus sp.; inoculum 5×10^5 CFU/mL): 0.5 to 1 µg/mL
MIC Enterococcus faecium (GC 4556) (Enterococcus sp.; inoculum 5×10^5 CFU/mL): 1 to 2 µg/mL
MIC Enterococcus faecium (GC 4557) (Enterococcus sp.; inoculum 5×10^5 CFU/mL): 1 to 2 µg/mL
MIC Enterococcus avium (GC 4558) (Enterococcus sp.; inoculum 5×10^5 CFU/mL): 0.5 to 1 µg/mL
MIC Enterococcus faecalis (GC 6189) (Enterococcus sp.; inoculum 5×10^5 CFU/mL): 0.5 µg/mL (≈ 0.362 µM)
MIC Enterococcus faecalis (ATCC 29212) (Enterococcus sp.): 0.5 to 1 µg/mL
MIC Enterococcus faecalis (GC 2242) (Enterococcus sp.; strain GC 2242): 0.5 to 1 µg/mL
MIC Enterococcus faecium (GC 2243) (Enterococcus sp.): <0.5 to 1 µg/mL
MIC Enterococcus faecalis (GC 2691) (Enterococcus sp.; strain GC 2691): 0.5 µg/mL (≈ 0.362 µM)
MIC Enterococcus faecalis (GC 3059) (Enterococcus sp.; strain GC 3059): 0.5 µg/mL (≈ 0.362 µM)
MIC Enterococcus faecalis (GC 4554) (Enterococcus sp.): 0.5 to 1 µg/mL
MIC Enterococcus faecium (GC 4556) (Enterococcus sp.): 1 to 2 µg/mL
MIC Enterococcus faecium (GC 4557) (Enterococcus sp.): 1 to 2 µg/mL
MIC Enterococcus avium (GC 4558) (Enterococcus sp.): 0.5 to 1 µg/mL
MIC Enterococcus faecalis (GC 6189) (Enterococcus sp.): 0.5 µg/mL (≈ 0.362 µM)
MIC Escherichia coli (ATCC 25922) (Escherichia coli): >64 µg/mL
MIC Escherichia coli (GC 4559) (Escherichia coli): >64 µg/mL
MIC Escherichia coli (GC 4560) (Escherichia coli; strain GC 4560, 18 hours at 35° C.): 0.5 to 2 µg/mL
Structure (SMILES): CC(c1ccccc1)C1NC(=O)CNC(=O)C(CO)NC(=O)C(C(O)C2CNC(=N)N2C2OC(CO)C(O)C(O)C2O)NC(=O)C(C(O)C2CNC(=NC(=O)C(C)(C)C)N2)NC(=O)C(Cc2ccc(OC3OC(CO)C(OC4OC(CO)C(O)C(O)C4O)C(O)C3O)cc2)NC1=O (stereo not drawn) [Example 155]
MIC Staphylococcus haemolyticus (GC 4546) (Staphylococcus sp.): <0.5 to 1 µg/mL

MIC Streptococcus agalactiae (GC 4564) (Streptococcus sp.; [1]): 16 µg/mL (≈ 10.9 µM)
MIC Streptococcus pneumoniae (ATCC 6301) (Streptococcus sp.; [2]): 4 µg/mL (≈ 2.74 µM)
MIC Streptococcus pneumoniae (GC 1894) (Streptococcus sp.; [3]): 4 µg/mL (≈ 2.74 µM)
MIC Streptococcus pneumoniae (GC 4565) (Streptococcus sp.; Streptococcus pneumoniae (GC 4565)): 4 µg/mL (≈ 2.74 µM)
MIC Streptococcus pyogenes (GC 4563) (Streptococcus sp.; [4]): 8 µg/mL (≈ 5.47 µM)
MIC Streptococcus pneumoniae (ATCC 6301) (Streptococcus sp.; strain ATCC 6301): 4 µg/mL (≈ 2.74 µM)
MIC Streptococcus pneumoniae (GC 1894) (Streptococcus sp.; strain GC 1894): 4 µg/mL (≈ 2.74 µM)
MIC Streptococcus pyogenes (GC 4563) (Streptococcus sp.; strain GC 4563): 8 µg/mL (≈ 5.47 µM)
MIC Streptococcus agalactiae (GC 4564) (Streptococcus sp.; strain GC 4564): 16 µg/mL (≈ 10.9 µM)
MIC Streptococcus pneumoniae (GC 4565) (Streptococcus sp.; strain GC 4565): 4 µg/mL (≈ 2.74 µM)
MIC Staphylococcus aureus (GC 1131) (Staphylococcus sp.; inoculum 5×10^5 CFU/mL): 32 µg/mL (≈ 21.9 µM)
MIC Staphylococcus aureus (ATCC 29213) (Staphylococcus sp.; strain ATCC 29213): 32 µg/mL (≈ 21.9 µM)
MIC Staphylococcus aureus (GC 1131) (Staphylococcus sp.): 32 µg/mL (≈ 21.9 µM)
MIC Staphylococcus aureus (GC 3051) (Staphylococcus sp.): 16 µg/mL (≈ 10.9 µM)
MIC Staphylococcus aureus (GC 3053) (Staphylococcus sp.): 32 µg/mL (≈ 21.9 µM)
MIC Staphylococcus aureus (GC 4541) (Staphylococcus sp.; strain GC 4541): 16 µg/mL (≈ 10.9 µM)
MIC Staphylococcus aureus (GC 4542) (Staphylococcus sp.; strain GC 4542): 32 µg/mL (≈ 21.9 µM)
MIC Staphylococcus aureus-SMITH (GC 4543) (Staphylococcus sp.; strain GC 4543): 16 µg/mL (≈ 10.9 µM)
MIC Staphylococcus aureus (GC 4544) (Staphylococcus sp.; strain GC 4544): 32 µg/mL (≈ 21.9 µM)
MIC Staphylococcus aureus (GC 4545) (Staphylococcus sp.): 16 µg/mL (≈ 10.9 µM)
MIC Coagulase Negative Staphylococcus (GC 4547) (Staphylococcus sp.): 16 µg/mL (≈ 10.9 µM)
MIC Coagulase Negative Staphylococcus (GC 4548) (Staphylococcus sp.): 8 µg/mL (≈ 5.47 µM)
MIC Coagulase Negative Staphylococcus (GC 4549) (Staphylococcus sp.): 8 µg/mL (≈ 5.47 µM)
MIC Coagulase Negative Staphylococcus (GC 4551) (Staphylococcus sp.): 32 µg/mL (≈ 21.9 µM)
MIC Coagulase Negative Staphylococcus (GC 6257) (Staphylococcus sp.): 4 µg/mL (≈ 2.74 µM)
MIC Staphylococcus aureus-SMITH (GC 4543) (Staphylococcus sp.; strain SMITH GC 4543): 16 µg/mL (≈ 10.9 µM)
MIC Enterococcus faecalis (GC 2242) (Enterococcus sp.; [5]): 64 µg/mL (≈ 43.8 µM)
MIC Enterococcus faecalis (GC 2691) (Enterococcus sp.; [6]): >64 µg/mL
MIC Enterococcus faecalis (GC 3059) (Enterococcus sp.; [7]): >64 µg/mL
MIC Enterococcus faecalis (ATCC 29212) (Enterococcus sp.; inoculum 5×10^5 CFU/mL): >64 µg/mL
MIC Enterococcus faecium (GC 2243) (Enterococcus sp.; inoculum 5×10^5 CFU/mL): 64 µg/mL (≈ 43.8 µM)
MIC Enterococcus faecalis (GC 4552) (Enterococcus sp.; inoculum 5×10^5 CFU/mL): >64 µg/mL
MIC Enterococcus faecalis (GC 4553) (Enterococcus sp.; inoculum 5×10^5 CFU/mL): >64 µg/mL
MIC Enterococcus faecalis (GC 4554) (Enterococcus sp.; inoculum 5×10^5 CFU/mL): >64 µg/mL
MIC Enterococcus faecium (GC 4556) (Enterococcus sp.; inoculum 5×10^5 CFU/mL): >64 µg/mL
MIC Enterococcus faecium (GC 4557) (Enterococcus sp.; inoculum 5×10^5 CFU/mL): 8 µg/mL (≈ 5.47 µM)
MIC Enterococcus avium (GC 4558) (Enterococcus sp.; inoculum 5×10^5 CFU/mL): 64 µg/mL (≈ 43.8 µM)
MIC Enterococcus faecalis (GC 6189) (Enterococcus sp.; inoculum 5×10^5 CFU/mL): >64 µg/mL
MIC Enterococcus faecalis (ATCC 29212) (Enterococcus sp.): >64 µg/mL
MIC Enterococcus faecalis (GC 2242) (Enterococcus sp.; strain GC 2242): 64 µg/mL (≈ 43.8 µM)
MIC Enterococcus faecium (GC 2243) (Enterococcus sp.): 64 µg/mL (≈ 43.8 µM)
MIC Enterococcus faecalis (GC 2691) (Enterococcus sp.; strain GC 2691): >64 µg/mL
MIC Enterococcus faecalis (GC 3059) (Enterococcus sp.; strain GC 3059): >64 µg/mL
MIC Enterococcus faecalis (GC 4552) (Enterococcus sp.): >64 µg/mL
MIC Enterococcus faecalis (GC 4553) (Enterococcus sp.): >64 µg/mL
MIC Enterococcus faecalis (GC 4554) (Enterococcus sp.): >64 µg/mL
MIC Enterococcus faecium (GC 4556) (Enterococcus sp.): >64 µg/mL
MIC Enterococcus faecium (GC 4557) (Enterococcus sp.): 8 µg/mL (≈ 5.47 µM)
MIC Enterococcus avium (GC 4558) (Enterococcus sp.): 64 µg/mL (≈ 43.8 µM)
MIC Enterococcus faecalis (GC 6189) (Enterococcus sp.): >64 µg/mL
MIC Escherichia coli (ATCC 25922) (Escherichia coli): >64 µg/mL
MIC Escherichia coli (GC 4559) (Escherichia coli): >64 µg/mL
Structure (SMILES): CC(c1ccccc1)C1NC(=O)CNC(=O)C(CO)NC(=O)C(C(O)C2CNC(=N)N2C2OC(CO)C(O)C(O)C2O)NC(=O)C(C(O)C2CNC(=N)N2)NC(=O)C(Cc2ccc(OC3OC(CO)C(OC4OC5COC(c6ccc(S(C)(=O)=O)cc6)OC5C(O)C4O)C(O)C3O)cc2)NC1=O (stereo not drawn) [Example 157]
MIC Staphylococcus haemolyticus (GC 4546) (Staphylococcus sp.): 16 µg/mL (≈ 10.9 µM)

Source: US6914045B2, “Glycopeptide antibiotics” (Wyeth Holdings Corporation, priority 2001, dated 2005)
